Measured values taken from paper PMC7508628, “Targeting the Respiratory Syncytial Virus N^0-P Complex with Constrained α-Helical Peptides in Cells and Mice” (Antimicrobial Agents and Chemotherapy, 2020).
Where a SMILES comes first, the peptide text is derived from it. Bridges are numbered along the chain shown (N, C = ends). [ ]: non-standard residue; d: D form. R8 = C=CCCCCCC[C@@](C)(N)C(=O)O; R5 = C=CCCC[C@@](C)(N)C(=O)O; S5 = C=CCCC[C@](C)(N)C(=O)O

Legend:
circular dichroism = details: 10 mM phosphate; pH 7.5; 25 °C; 50 uM
[1] = Circular dichroism spectroscopy, α-helical content; assay type: physicochemical; details: CD, 10 mM phosphate buffer pH 7.5, 50 μM peptide, 25°C, calculated from ellipticity at 222 nm; average of three measurements
Method: The α-helical stabilization appeared to be higher for the i, i + 7 staples overall.
The circular dichroism spectra were acquired on a Chirascan spectropolarimeter. The samples were prepared in 10 mM phosphate buffer, pH 7.5, at a peptide concentration of 50 μM. Data were recorded at 25°C by step scan from 180 nm to 260 nm in a 0.5-mm-pathlength quartz cell using 0.2-nm-wavelength increments, a 1-nm bandwidth, and a response time of 1 s. Each spectrum was an average of three measurements and was subtracted from the buffer baseline. The data were converted to per residue molar ellipticity units (θ; in degrees · square centimeters · decimoles^−1 · number of residues^−1) and smoothed using Igor Pro software. Percent helicity was calculated as follows: (100 × CD222)/(C × N × {40,000 × [1 − (2.5/N)]}), where CD222 is the molar ellipticity (θ) at 222 nm (in millidegrees), N is the number of amino acids in the peptide, and C is the peptide molar concentration (in moles per liter).

rHRSV-mCherry = details: read-out: EC50 (half-maximal response inhibitory concentration), inhibition of RSV infection; HEp-2 cells, MOI 0.2, peptides added after 2 h infection, mCherry fluorescence at 48 h postinfection; duplicates

| Structure (SMILES) | helicity (circular dichroism) [%] | % helicity [1] [%] | EC50 (rHRSV-mCherry) [µM] |
| --- | --- | --- | --- |
| CC[C@H](C)[C@@H]1NC(=O)[C@H](CO)NC(=O)[C@H](CCC(=O)O)NC(=O)[C@H](CC(C)C)NC(=O)[C@H](Cc2ccccc2)NC(=O)[C@](C)(NC(=O)[C@@H](NC(=O)[C@H](C)NC(=O)[C@H](CCCCN)NC(=O)[C@H](CC(N)=O)NC(=O)[C@H](CC(N)=O)NC(=O)[C@H](C)NC(=O)[C@H](CC(=O)O)NC(=O)[C@H](CCC(=O)O)NC(C)=O)[C@@H](C)O)CCCCCCC=CCCC[C@@](C)(C(=O)N[C@@H](CCCCN)C(=O)N[C@@H](Cc2ccccc2)C(=O)N[C@@H](C)C(=O)N[C@@H](CO)C(N)=O)NC(=O)[C@H](CCCCN)NC1=O (Ac-EDANNKAT[R8]FLESIK[S5]KFAS-NH2; staple 9-16) | 96 |  |  |
| CC[C@H](C)[C@H](NC(=O)[C@H](CO)NC(=O)[C@]1(C)CCCC=CCCC[C@](C)(NC(=O)[C@H](C)NC(=O)[C@H](CCCCN)NC(=O)[C@H](CC(N)=O)NC(=O)[C@H](CC(N)=O)NC(=O)[C@H](C)NC(=O)[C@H](CC(=O)O)NC(=O)[C@H](CCC(=O)O)NC(C)=O)C(=O)N[C@@H](CCCCN)C(=O)N[C@@H](Cc2ccccc2)C(=O)N[C@@H](CC(C)C)C(=O)N1)C(=O)N[C@@H](CCCCN)C(=O)NCC(=O)N[C@@H](CCCCN)C(=O)N[C@@H](Cc1ccccc1)C(=O)N[C@@H](C)C(=O)N[C@@H](CO)C(N)=O (Ac-EDANNKA[S5]KFL[S5]SIKGKFAS-NH2; staple 8-12) | 31 |  |  |
| CC[C@H](C)[C@H](NC(=O)[C@]1(C)CCCC=CCCCCCC[C@@](C)(NC(=O)[C@H](CC(N)=O)NC(=O)[C@H](CC(N)=O)NC(=O)[C@H](C)NC(=O)[C@H](CC(=O)O)NC(=O)[C@H](CCC(=O)O)NC(C)=O)C(=O)N[C@@H](C)C(=O)N[C@@H]([C@@H](C)O)C(=O)N[C@@H](CCCCN)C(=O)N[C@@H](Cc2ccccc2)C(=O)N[C@@H](CC(C)C)C(=O)N[C@@H](CCC(=O)O)C(=O)N1)C(=O)N[C@@H](CCCCN)C(=O)NCC(=O)N[C@@H](CCCCN)C(=O)N[C@@H](Cc1ccccc1)C(=O)N[C@@H](C)C(=O)N[C@@H](CO)C(N)=O (Ac-EDANN[R8]ATKFLE[S5]IKGKFAS-NH2; staple 6-13) | 36.5 |  |  |
| CC[C@H](C)[C@H](NC(=O)[C@H](CO)NC(=O)[C@]1(C)CCCC=CCCCCCC[C@@](C)(NC(=O)[C@H](CC(N)=O)NC(=O)[C@H](C)NC(=O)[C@H](CC(=O)O)NC(=O)[C@H](CCC(=O)O)NC(C)=O)C(=O)N[C@@H](CCCCN)C(=O)N[C@@H](C)C(=O)N[C@@H]([C@@H](C)O)C(=O)N[C@@H](CCCCN)C(=O)N[C@@H](Cc2ccccc2)C(=O)N[C@@H](CC(C)C)C(=O)N1)C(=O)N[C@@H](CCCCN)C(=O)NCC(=O)N[C@@H](CCCCN)C(=O)N[C@@H](Cc1ccccc1)C(=O)N[C@@H](C)C(=O)N[C@@H](CO)C(N)=O (Ac-EDAN[R8]KATKFL[S5]SIKGKFAS-NH2; staple 5-12) | 64.6 |  |  |
| CC[C@H](C)[C@H](NC(=O)[C@H](CO)NC(=O)[C@]1(C)CCCC=CCCC[C@@](C)(NC(=O)[C@@H](NC(=O)[C@H](C)NC(=O)[C@H](CCCCN)NC(=O)[C@H](CC(N)=O)NC(=O)[C@H](CC(N)=O)NC(=O)[C@H](C)NC(=O)[C@H](CC(=O)O)NC(=O)[C@H](CCC(=O)O)NC(=O)CNC(=O)[C@H](Cc2c[nH]cn2)NC(=O)[C@H](Cc2ccccc2)NC(=O)[C@H](CCC(=O)O)NC(C)=O)[C@@H](C)O)C(=O)N[C@@H](Cc2ccccc2)C(=O)N[C@@H](CC(C)C)C(=O)N1)C(=O)N[C@@H](CCCCN)C(=O)N[C@]1(C)CCCC=CCCC[C@@](C)(C(=O)N[C@@H](CO)C(N)=O)NC(=O)[C@H](Cc2ccccc2)NC(=O)[C@H](CCCCN)NC1=O [1c1f] (Ac-EFHGEDANNKAT[R5]FL[S5]SIK[R5]KF[S5]S-NH2; staple 13-16, 20-23) |  | 39.2 | > 100 |
| CC[C@H](C)[C@H](NC(=O)[C@H](CO)NC(=O)[C@H](CCC(=O)O)NC(=O)[C@H](CC(C)C)NC(=O)[C@H](Cc1ccccc1)NC(=O)[C@]1(C)CCCC=CCCC[C@](C)(NC(=O)[C@H](CC(N)=O)NC(=O)[C@H](C)NC(=O)[C@H](CC(=O)O)NC(=O)[C@H](CCC(=O)O)NC(C)=O)C(=O)N[C@@H](CCCCN)C(=O)N[C@@H](C)C(=O)N[C@@H]([C@@H](C)O)C(=O)N1)C(=O)N[C@@H](CCCCN)C(=O)NCC(=O)N[C@@H](CCCCN)C(=O)N[C@@H](Cc1ccccc1)C(=O)N[C@@H](C)C(=O)N[C@@H](CO)C(N)=O [2a] (Ac-EDAN[S5]KAT[S5]FLESIKGKFAS-NH2; staple 5-9) | 17.9 | 17.9 |  |
| CC[C@H](C)[C@H](NC(=O)[C@H](CO)NC(=O)[C@]1(C)CCCC=CCCC[C@](C)(NC(=O)[C@H](C)NC(=O)[C@H](CCCCN)NC(=O)[C@H](CC(N)=O)NC(=O)[C@H](CC(N)=O)NC(=O)[C@H](C)NC(=O)[C@H](CC(=O)O)NC(=O)[C@H](CCC(=O)O)NC(=O)CNC(=O)[C@H](Cc2c[nH]cn2)NC(=O)[C@H](Cc2ccccc2)NC(=O)[C@H](CCC(=O)O)NC(C)=O)C(=O)N[C@@H](CCCCN)C(=O)N[C@@H](Cc2ccccc2)C(=O)N[C@@H](CC(C)C)C(=O)N1)C(=O)N[C@@H](CCCCN)C(=O)N[C@]1(C)CCCC=CCCC[C@@](C)(C(=O)N[C@@H](CO)C(N)=O)NC(=O)[C@H](Cc2ccccc2)NC(=O)[C@H](CCCCN)NC1=O [2b1f] (Ac-EFHGEDANNKA[S5]KFL[S5]SIK[R5]KF[S5]S-NH2; staple 12-16, 20-23) |  | 37.6 | 41 ± 0.5 |
| CC[C@H](C)[C@H](NC(=O)[C@]1(C)CCCC=CCCC[C@](C)(NC(=O)[C@@H](NC(=O)[C@H](C)NC(=O)[C@H](CCCCN)NC(=O)[C@H](CC(N)=O)NC(=O)[C@H](CC(N)=O)NC(=O)[C@H](C)NC(=O)[C@H](CC(=O)O)NC(=O)[C@H](CCC(=O)O)NC(C)=O)[C@@H](C)O)C(=O)N[C@@H](Cc2ccccc2)C(=O)N[C@@H](CC(C)C)C(=O)N[C@@H](CCC(=O)O)C(=O)N1)C(=O)N[C@@H](CCCCN)C(=O)NCC(=O)N[C@@H](CCCCN)C(=O)N[C@@H](Cc1ccccc1)C(=O)N[C@@H](C)C(=O)N[C@@H](CO)C(N)=O [2c] (Ac-EDANNKAT[S5]FLE[S5]IKGKFAS-NH2; staple 9-13) | 16.8 | 16.8 |  |
| CC[C@H](C)[C@H](NC(=O)[C@H](CO)NC(=O)[C@]1(C)CCCC=CCCCCCC[C@@](C)(NC(=O)[C@H](CC(N)=O)NC(=O)[C@H](C)NC(=O)[C@H](CC(=O)O)NC(=O)[C@H](CCC(=O)O)NC(=O)CNC(=O)[C@H](Cc2c[nH]cn2)NC(=O)[C@H](Cc2ccccc2)NC(=O)[C@H](CCC(=O)O)NC(C)=O)C(=O)N[C@@H](CCCCN)C(=O)N[C@@H](C)C(=O)N[C@@H]([C@@H](C)O)C(=O)N[C@@H](CCCCN)C(=O)N[C@@H](Cc2ccccc2)C(=O)N[C@@H](CC(C)C)C(=O)N1)C(=O)N[C@@H](CCCCN)C(=O)N[C@]1(C)CCCC=CCCC[C@@](C)(C(=O)N[C@@H](CO)C(N)=O)NC(=O)[C@H](Cc2ccccc2)NC(=O)[C@H](CCCCN)NC1=O [3a1f] (Ac-EFHGEDAN[R8]KATKFL[S5]SIK[R5]KF[S5]S-NH2; staple 9-16, 20-23) |  | 37.7 | 25.3 ± 17.9 |
| CC[C@H](C)[C@H](NC(=O)[C@]1(C)CCCC=CCCCCCC[C@@](C)(NC(=O)[C@H](CC(N)=O)NC(=O)[C@H](CC(N)=O)NC(=O)[C@H](C)NC(=O)[C@H](CC(=O)O)NC(=O)[C@H](CCC(=O)O)NC(=O)CNC(=O)[C@H](Cc2c[nH]cn2)NC(=O)[C@H](Cc2ccccc2)NC(=O)[C@H](CCC(=O)O)NC(C)=O)C(=O)N[C@@H](C)C(=O)N[C@@H]([C@@H](C)O)C(=O)N[C@@H](CCCCN)C(=O)N[C@@H](Cc2ccccc2)C(=O)N[C@@H](CC(C)C)C(=O)N[C@@H](CCC(=O)O)C(=O)N1)C(=O)N[C@@H](CCCCN)C(=O)N[C@]1(C)CCCC=CCCC[C@@](C)(C(=O)N[C@@H](CO)C(N)=O)NC(=O)[C@H](Cc2ccccc2)NC(=O)[C@H](CCCCN)NC1=O [3b1f] (Ac-EFHGEDANN[R8]ATKFLE[S5]IK[R5]KF[S5]S-NH2; staple 10-17, 20-23) |  | 46.6 | > 100 |
| CC[C@H](C)[C@@H]1NC(=O)[C@](C)(NC(=O)[C@H](CCC(=O)O)NC(=O)[C@H](CC(C)C)NC(=O)[C@H](Cc2ccccc2)NC(=O)[C@H](CCCCN)NC(=O)[C@@H](NC(=O)[C@H](C)NC(=O)[C@H](CCCCN)NC(=O)[C@H](CC(N)=O)NC(=O)[C@H](CC(N)=O)NC(=O)[C@H](C)NC(=O)[C@H](CC(=O)O)NC(=O)[C@H](CCC(=O)O)NC(C)=O)[C@@H](C)O)CCCCCCC=CCCC[C@@](C)(C(N)=O)NC(=O)[C@H](C)NC(=O)[C@H](Cc2ccccc2)NC(=O)[C@H](CCCCN)NC(=O)CNC(=O)[C@H](CCCCN)NC1=O [3e] (Ac-EDANNKATKFLE[R8]IKGKFA[S5]-NH2; staple 13-20) | 19.9 | 19.9 |  |
| CC[C@H](C)[C@H](NC(=O)[C@]1(C)CCCC=CCCCCCC[C@@](C)(NC(=O)[C@H](CC(N)=O)NC(=O)[C@H](CC(N)=O)NC(=O)[C@H](C)NC(=O)[C@]2(C)CCCC=CCCC[C@](C)(NC(=O)[C@H](CCC(=O)O)NC(C)=O)C(=O)N[C@@H](Cc3c[nH]cn3)C(=O)NCC(=O)N[C@@H](CCC(=O)O)C(=O)N2)C(=O)N[C@@H](C)C(=O)N[C@@H]([C@@H](C)O)C(=O)N[C@@H](CCCCN)C(=O)N[C@@H](Cc2ccccc2)C(=O)N[C@@H](CC(C)C)C(=O)N[C@@H](CCC(=O)O)C(=O)N1)C(=O)N[C@@H](CCCCN)C(=O)NCC(=O)N[C@@H](CCCCN)C(=O)N[C@@H](Cc1ccccc1)C(=O)N[C@@H](C)C(=O)N[C@@H](CO)C(N)=O [4c3b] (Ac-E[S5]HGE[S5]ANN[R8]ATKFLE[S5]IKGKFAS-NH2; staple 2-6, 10-17) |  | 34.2 | 39.9 ± 4.5 |
